How the values were obtained:
VvelCSP1 = VvelCSP1 (Vespa velutina auraria, UniProt A0A384ZVP9); assay: Fluorescence competitive binding assay (1-NPN probe) with VvelCSP1
Experimental: (§1) Fluorescence competitive binding assays were employed to characterize the interactions between VvelCSPs and 13 volatiles shared between the elaiosomes of S. tuberosa and the cuticular hydrocarbons of honeybees. These tests were performed in 1 cm path length quartz cuvettes with an excitation wavelength of 337 nm and emission wavelength scanning from 400–450 nm. The volatiles and the fluorescent probe 1-NPN (1-N-phenylnaphthylamine), listed in Supplementary Table S2, were dissolved in methanol to prepare 100 mM stock solutions, which were then diluted to 1 mM working solutions [25]. To remove any potential endogenous ligands, the purified proteins were delipidated by three washes with an equal volume of dichloromethane (1:1 v/v). Each wash involved a 10-min incubation, and the process was followed by evaporation of the residual solvent under a gentle stream of nitrogen. Purified CSPs were resuspended in 20 mM Tris-HCl buffer (pH 7.5) to a final concentration of 2 μM. Binding parameters for CSP-NPN were determined by titration: 2 mL of CSP solution (2 μM) was titrated with 1-NPN (final concentrations: 2−24 μM). Maximum fluorescence intensity was recorded, and the dissociation constant was calculated. […] After incubation in the dark for 2 min, fluorescence quenching was measured. Half-maximal inhibitory concentration (IC50) values for volatiles were calculated from the competition curves, and their binding constants (Ki) were subsequently derived. The presented data, including IC50 and Ki values, originate from a single experiment under uniform conditions to ensure comparability (Supplementary Table S3).

VvelCSP4 = assay: Fluorescence competitive binding assay (1-NPN probe) with VvelCSP4; set-up: species or system Vespa velutina auraria; settings: for IC50: VvelCSP4 2 μM, 1-NPN 1 μM, Tris-HCl pH 7.5, single experiment, read-out: IC50 (ligand concentration displacing 50% of the fluorescence intensity of the CSPs/NPN complex); for Ki: VvelCSP4, derived from IC50, read-out: Ki (dissociation constant)
Experimental: as §1

CsasCSP16 = target: CsasCSP16; set-up: method as in PMID 34082360; settings: CsasCSP16 from Carposina sasakii ref 42; cited from earlier work

VvelCSP1, sequence (A0A384ZVP9 entry or part of it): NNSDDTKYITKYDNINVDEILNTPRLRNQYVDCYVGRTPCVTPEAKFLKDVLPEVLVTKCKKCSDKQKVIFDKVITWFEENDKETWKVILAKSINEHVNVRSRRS

| Raw fluorescence intensity (VvelCSP1; VvelCSP1, chemical 0.5 μM) | Raw fluorescence intensity (VvelCSP1; VvelCSP1, chemical 1 μM) | Raw fluorescence intensity (VvelCSP1; VvelCSP1, chemical 2 μM) | Raw fluorescence intensity (VvelCSP1; VvelCSP1, chemical 4 μM) | Raw fluorescence intensity (VvelCSP1; VvelCSP1, chemical 6 μM) | Raw fluorescence intensity (VvelCSP1; VvelCSP1, chemical 8 μM) | Raw fluorescence intensity (VvelCSP1; VvelCSP1, chemical 12 μM) | Raw fluorescence intensity (VvelCSP1; VvelCSP1, chemical 16 μM) | IC50 (VvelCSP4) [µM] | Raw fluorescence intensity (VvelCSP4; VvelCSP4, chemical 0.5 μM) | Raw fluorescence intensity (VvelCSP4; VvelCSP4, chemical 1 μM) | Raw fluorescence intensity (VvelCSP4; VvelCSP4, chemical 2 μM) | Raw fluorescence intensity (VvelCSP4; VvelCSP4, chemical 4 μM) | Raw fluorescence intensity (VvelCSP4; VvelCSP4, chemical 6 μM) | Raw fluorescence intensity (VvelCSP4; VvelCSP4, chemical 8 μM) | Raw fluorescence intensity (VvelCSP4; VvelCSP4, chemical 12 μM) | Raw fluorescence intensity (VvelCSP4; VvelCSP4, chemical 16 μM) | Ki (VvelCSP4) [µM] | SMILES | Ki (CsasCSP16) [µM] |
| --- | --- | --- | --- | --- | --- | --- | --- | --- | --- | --- | --- | --- | --- | --- | --- | --- | --- | --- | --- |
| 193.01 | 170.16 | 140.89 | 116.63 | 101.34 | 94.22 | 88.89 | 86.00 | 5.09 | 207.46 | 177.45 | 153.67 | 134.98 | 119.90 | 111.62 | 110.10 | 107.68 | 3.85 | CCCCCCCCCCCCCCCCCCCCCCC [Tricosane] | – |
| 214.80 | 200.54 | 176.56 | 164.98 | 151.46 | 137.73 | 126.20 | 120.19 | 3.97 | 182.16 | 152.13 | 132.92 | 109.71 | 96.72 | 89.44 | 84.83 | 83.78 | 2.97 | CCCCCCCC/C=C\CCCCCCCCCCCCC [Z-9-Tricosene] | – |
| – | – | – | – | – | – | – | – | – | – | – | – | – | – | – | – | – | – | CCCCCCCCCCCCCCC [pentadecane] | 3.5 |

— article PMC12652730, “The Chemoreceptive Molecular Mechanism Underlying CSP-Mediated Recognition of Seed Elaiosome from Stemona tuberosa by Hornets” (Genes, 2025)
